Test results: patent US9359409B2, “Antimicrobial peptides, compositions comprising the same and uses thereof” (priority 2012, dated 2016)
Ends that are not written are not given here.

System: Staphylococcus aureus
Assay: MIC by broth microdilution
Assay type: cell-based
Procedure, shortened: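 Broth microdilution per CLSI M07-A9 in cation-supplemented Mueller-Hinton broth (Ca++ 20-25 mg/L, Mg++ 10-12.5 mg/L). Peptides tested in two-fold dilutions from 0.5 to 512 μg/mL. Inoculum was a 1/100 dilution of a 0.5 McFarland suspension.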

Substance: ILRWPWWPWRRK-NH2 [Omiganan, ILRWPWWPWRRK, reference compound]
- MIC (S. aureus 28, resistance gene ermA): 32 µg/mL
- MIC (S. aureus 33, resistance gene msrA): 32 µg/mL
- MIC (S. aureus 204, resistance gene ermA): 64 µg/mL
- MIC (S. aureus 239, resistance gene ermC): 32 µg/mL
- MIC (S. aureus M2832, resistance gene mecA): 64 µg/mL
- MIC (S. aureus M4046, resistance gene mecA): 32 µg/mL
- MIC (S. aureus M6276, resistance gene ermA + lnuA): 32 µg/mL
- MIC (S. aureus M6784, resistance gene mecA): 32 µg/mL
- MIC (S. aureus M6820, resistance gene mecA): 128 µg/mL
